# Assay: Evaluation of stability in liver microsome
# Settings: mouse liver microsome 0.25 mg/mL, test compound 1 μM, 37° C., 30 minutes
row,Remaining (%),Structure (SMILES)
1,78,"COCc1ccc(NC(=O)c2c(C#Cc3cnc4ccoc4c3)n(C3(C)CC3)c3ncnc(N)c23)cc1 [Example 159, 4-amino-6-(furo[3,2-b]pyridin-6-ylethynyl)-N-(4-(methoxymethyl)phenyl)-7-(1-methylcyclopropyl)-7H-pyrrolo[2,3-d]pyrimidine-5-carboxamide]"
2,68,"COCc1ccc(NC(=O)c2c(C#Cc3ccc[nH]3)n(C3(C)CC3)c3ncnc(N)c23)cc1 [Example 161, 6-((1H-pyrrol-2-yl)ethynyl)-4-amino-N-(4-(methoxymethyl)phenyl)-7-(1-methylcyclopropyl)-7H-pyrrolo[2,3-d]pyrimidine-5-carboxamide]"
3,76,"COCc1ccc(NC(=O)c2c(C#Cc3ccccc3)n(C3(C)CC3)c3ncnc(N)c23)cc1 [Example 162, 4-amino-N-(4-(methoxymethyl)phenyl)-7-(1-methylcyclopropyl)-6-(phenylethynyl)-7H-pyrrolo[2,3-d]pyrimidine-5-carboxamide]"
4,90,"COCc1ccc(NC(=O)c2c(C#Cc3ccc(OC)cc3)n(C3(C)CC3)c3ncnc(N)c23)cc1 [Example 165, 4-amino-N-(4-(methoxymethyl)phenyl)-6-((4-methoxypheny)ethynyl)-7-(1-methylcyclopropyl)-7H-pyrrolo[2,3-d]pyrimidine-5-carboxamide]"
5,80,"COCc1ccc(NC(=O)c2c(-c3cn[nH]c3)n(C3(C)CC3)c3ncnc(N)c23)cc1 [Example 167, 4-amino-N-(4-(methoxymethyl)phenyl)-7-(1-methylcyclopropyl)-6-(1H-pyrazol-4-yl)-7H-pyrrolo[2,3-d]pyrimidine-5-carboxamide]"
6,77,"COCc1ccc(NC(=O)c2c(-c3ccc(N4CCN(C)CC4)cc3)n(C3(C)CC3)c3ncnc(N)c23)cc1 [Example 171, 4-amino-N-(4-(methoxymethyl)phenyl)-7-(1-methylcyclopropyl)-6-(4-(4-methylpiperazin-1-yl)phenyl)-7H-pyrrolo[2,3-d]pyrimidine-5-carboxamide]"
7,61,"COCc1ccc(NC(=O)c2c(C#Cc3ccccn3)n(C3(C)CC3)c3ncnc(N)c23)cc1 [Example 172, 4-amino-N-[4-(methoxymethyl)phenyl]-7-(1-methylcyclopropyl)-6-(pyridin-2-ylethynyl)-7H-pyrrolo[2,3-d]pyrimidine-5-carboxamide]"
8,72,"COCc1ccc(NC(=O)c2c(C#CC(C)(C)O)n(C3(C)CC3)c3ncnc(N)c23)cc1 [Example 174, 4-amino-6-(3-hydroxy-3-methylbut-1-yn-1-yl)-N-(4-(methoxymethyl)phenyl)-7-(1-methylcyclopropyl)-7H-pyrrolo[2,3-d]pyrimidine-5-carboxamide]"

# The next lines start with the compound.
row,Structure (SMILES),Remaining (%)
1,"COCc1ccc(NC(=O)c2c(C#CCC3(O)CCOCC3)n(C3(C)CC3)c3ncnc(N)c23)cc1 [Example 143, 4-amino-6-(3-(4-hydroxytetrahydro-2H-pyran-4-yl)prop-1-yn-1-yl)-N-(4-(methoxymethyl)phenyl)-7-(1-methylcyclopropyl)-7H-pyrrolo[2,3-d]pyrimidine-5-carboxamide]",68
2,"COCc1ccc(NC(=O)c2c(C#Cc3cnn(C(C)C)c3)n(C3(C)CC3)c3ncnc(N)c23)cc1 [Example 144, 4-amino-6-((1-isopropyl-1H-pyrazol-4-yl)ethynyl)-N-(4-(methoxymethyl)phenyl)-7-(1-methylcyclopropyl)-7H-pyrrolo[2,3-d]pyrimidine-5-carboxamide]",79
3,"COCc1ccc(NC(=O)c2c(-c3ccc(CO)cc3)n(C3(C)CC3)c3ncnc(N)c23)cc1 [Example 145, 4-amino-6-(4-(hydroxymethyl)phenyl)-N-(4-(methoxymethyl)phenyl)-7-(1-methylcyclopropyl)-7H-pyrrolo[2,3-d]pyrimidine-5-carboxamide]",72
4,"COCc1ccc(NC(=O)c2c(-c3ccc(NC(C)=O)nc3)n(C3(C)CC3)c3ncnc(N)c23)cc1 [Example 147, 6-(6-acetamidopyridin-3-yl)-4-amino-N-(4-(methoxymethyl)phenyl)-7-(1-methylcyclopropyl)-7H-pyrrolo[2,3-d]pyrimidine-5-carboxamide]",68
5,"COCc1ccc(NC(=O)c2c(-c3ccc(O)cc3)n(C3(C)CC3)c3ncnc(N)c23)cc1 [Example 148, 4-amino-6-(4-hydroxyphenyl)-N-(4-(methoxymethyl)phenyl)-7-(1-methylcyclopropyl)-7H-pyrrolo[2,3-d]pyrimidine-5-carboxamide]",61
6,"C=C(C)c1c(C(=O)Nc2ccc(COC)cc2)c2c(N)ncnc2n1C1(C)CC1 [Example 149, 4-amino-N-(4-(methoxymethyl)phenyl)-7-(1-methylcyclopropyl)-6-(prop-1-en-2-yl)-7H-pyrrolo[2,3-d]pyrimidine-5-carboxamide]",62
7,"COCc1ccc(NC(=O)c2c(-c3cnn(C)c3)n(C3(C)CC3)c3ncnc(N)c23)cc1 [Example 150, 4-amino-N-(4-(methoxymethyl)phenyl)-6-(1-methyl-1H-pyrazol-4-yl)-7-(1-methylcyclopropyl)-7H-pyrrolo[2,3-d]pyrimidine-5-carboxamide]",78
8,"COCc1ccc(NC(=O)c2c(C#CCC3CCOCC3)n(C3(C)CC3)c3ncnc(N)c23)cc1 [Example 152, 4-amino-N-(4-(methoxymethyl)phenyl)-7-(1-methylcyclopropyl)-6-(3-(tetrahydro-2H-pyran-4-yl)prop-1-yn-1-yl)-7H-pyrrolo[2,3-d]pyrimidine-5-carboxamide]",57
9,"COCc1ccc(NC(=O)c2c(-c3ccccc3)n(C3(C)CC3)c3ncnc(N)c23)cc1 [Example 154, 4-amino-N-(4-(methoxymethyl)phenyl)-7-(1-methylcyclopropyl)-6-phenyl-7H-pyrrolo[2,3-d]pyrimidine-5-carboxamide]",50
10,"COCc1ccc(NC(=O)c2c(C#Cc3ccc(N)nc3)n(C3(C)CC3)c3ncnc(N)c23)cc1 [Example 155, 4-amino-6-((6-aminopyridin-3-yl)ethynyl)-N-(4-(methoxymethyl)phenyl)-7-(1-methylcyclopropyl)-7H-pyrrolo[2,3-d]pyrimidine-5-carboxamide]",64
11,"COCc1ccc(NC(=O)c2c(C#CCC3NC(=O)NC3=O)n(C3(C)CC3)c3ncnc(N)c23)cc1 (stereo not drawn) [Example 156, 4-amino-6-(3-(2,5-dioxoimidazolidin-4-yl)prop-1-yn-1-yl)-N-(4-(methoxymethyl)phenyl)-7-(1-methylcyclopropyl)-7H-pyrrolo[2,3-d]pyrimidine-5-carboxamide]",67
12,"CCC(O)CC#Cc1c(C(=O)Nc2ccc(COC)cc2)c2c(N)ncnc2n1C1(C)CC1 (stereo not drawn) [Example 157, 4-amino-6-(4-hydroxyhex-1-yn-1-yl)-N-(4-(methoxymethyl)phenyl)-7-(1-methylcyclopropyl)-7H-pyrrolo[2,3-d]pyrimidine-5-carboxamide]",59
13,"COCc1ccc(NC(=O)c2c(C#Cc3ccc4c(c3)NCCO4)n(C3(C)CC3)c3ncnc(N)c23)cc1 [Example 158, 4-amino-6-((3,4-dihydro-2H-benzo[b][1,4]oxazin-6-yl)ethynyl)-N-(4-(methoxymethyl)phenyl)-7-(1-methylcyclopropyl)-7H-pyrrolo[2,3-d]pyrimidine-5-carboxamide]",85

# Reference: US10807986B2, “Fused pyrimidine compound or salt thereof” (TAIHO PHARMACEUTICAL CO., LTD., priority 2016, dated 2020)
